In US20220339136A1, “LIPOSOMAL TROPONOID COMPOUND FORMULATIONS” (United States Government As Represented By The Department …, priority 2019, published 2022):

Assays:
[1] = system: Vancomycin Intermediate Staphylococcus aureus (VISA) strain AR228; details: cited from earlier work; also: key: R: resistance; S: sensitive; I: intermediate; NS: nonsusceptible
[2] = system: Vancomycin Intermediate Staphylococcus aureus (VISA) strain AR219; details: cited from earlier work; also: key: R: resistance; S: sensitive; I: intermediate; NS: nonsusceptible
[3] = system: WT S. aureus (ATCC 25923); details: cited from earlier work
[4] = system: multidrug-resistant Staphylococcus. aureus (MDRSA), including methicillin-resistant S. aureus (MRSA) strains; details: cited from earlier work
[5] = insoluble as defined herein (less than 10 mg/l); cited from earlier work
S. aureus [6] = details: cited from earlier work
S. aureus [7] = details: 4×MIC, in vitro; cited from earlier work
[8] = system: Sa #10, mupirocin-resistant MDRSA; test: Killing of drug-resistant bacteria Sa #10; assay type: cell-based, Staphylococcus aureus; details: troponoids formulated as liposomes
Solubility = assay type: physicochemical
mammal cell lines = details: cited from earlier work

Row | Compound | Antimicrobial susceptibility testing pattern (AST) [1] | Antimicrobial susceptibility testing pattern (AST) [2] | Antimicrobial susceptibility testing pattern (AST) [3] | also measured
1 | Penicillin | R | R |  | 
2 | Gentamicin | S | R | S | 
3 | Trimethoprim-sulfamethoxazole [SXT] | S | S | S | 
4 | CO[C@@]1(NC(=O)Cc2cccs2)C(=O)N2C(C(=O)O)=C(COC(N)=O)CS[C@@H]21 [FOX, Cefoxitin] | R | R | Neg | 
5 | CC[C@H]1OC(=O)[C@H](C)[C@@H](O[C@H]2C[C@@](C)(OC)[C@@H](O)[C@H](C)O2)[C@H](C)[C@@H](O[C@@H]2O[C@H](C)C[C@H](N(C)C)[C@H]2O)[C@](C)(O)C[C@@H](C)C(=O)[C@H](C)[C@@H](O)[C@]1(C)O [ERY, Erthromycin] | R | R | S | 
6 | CC(=O)NC[C@H]1CN(c2ccc(N3CCOCC3)c(F)c2)C(=O)O1 [LZD, Linezolid] | S | S | S | 
7 | C/C(=C\C(=O)OCCCCCCCCC(=O)O)C[C@@H]1OC[C@H](C[C@@H]2O[C@H]2[C@@H](C)[C@H](C)O)[C@@H](O)[C@H]1O [MUP, Mupirocin] | R |  |  | 
8 | CN[C@H](CC(C)C)C(=O)N[C@H]1C(=O)N[C@@H](CC(N)=O)C(=O)N[C@H]2C(=O)N[C@H]3C(=O)N[C@H](C(=O)N[C@H](C(=O)O)c4cc(O)cc(O)c4-c4cc3ccc4O)[C@H](O)c3ccc(c(Cl)c3)Oc3cc2cc(c3O[C@@H]2O[C@H](CO)[C@@H](O)[C@H](O)[C@H]2O[C@H]2C[C@](C)(N)[C@H](O)[C@H](C)O2)Oc2ccc(cc2Cl)[C@H]1O [VAN, Vancomycin] | I | I | S | 
9 | Daptomyxin |  |  | S | 
10 | Cc1onc(-c2ccccc2)c1C(=O)N[C@@H]1C(=O)N2[C@@H]1SC(C)(C)[C@@H]2C(=O)O [OXA, Oxacillin] | R | R | S | 
11 | CO[C@H]1/C=C/O[C@@]2(C)Oc3c(C)c(O)c4c(O)c(c(/C=N/N5CCN(C)CC5)c(O)c4c3C2=O)NC(=O)/C(C)=C\C=C\[C@H](C)[C@H](O)[C@@H](C)[C@@H](O)[C@@H](C)[C@H](OC(C)=O)[C@@H]1C [RIF, Rifampin] | S | R | S | 
12 | COc1ccccc1C(=O)Oc1cccccc1=O [compound 285] |  |  |  | inhibition of MDRSA including MRSA strains [4]: can inhibit; solubility in water (reportedly) [5]: insoluble; MIC (S. aureus [6]): less than 5 μg/mL; incubation time to completely kill S. aureus (S. aureus [7]): 5 to 8 h; killing of mupirocin-resistant MDRSA Sa #10 [8]: can kill; solubility in DMSO (Solubility; DMSO, Gentamicin at 10 mg/mL): can be dissolved; solubility in water (Solubility; water): not quite soluble; CC50 (mammal cell lines): > 100 µM
